In US20130197189A1, “Method For Synthesizing A Cyclic Multivalent Peptide Using A Thiol-Mediated Reaction” (The Regents of the University of Colorado, A Body Corporate, priority 2010, published 2013):
Like-named read-outs stand apart in the source and are kept apart here. *1 amine or outer side, *2 acyl side, *3 side chain or, on linkers, in order; H or OH if unused. Where a SMILES comes first, the peptide text is derived from it. Bridges are numbered along the chain shown (N, C = ends). [ ]: non-standard residue; d: D form. X2 = O=C(C1CC2CC1C([*:1])C2)[*:2]; X1 = O=C(OCCC[*:1])[*:2]

What was measured:
GPIIb/IIIa = biological target: T1, GPIIb/IIIa (Homo sapiens, UniProt P05106+P08514); experiment: Fibrinogen binding ELISA (competitive binding ELISA: inhibition of fibrinogen binding to GPIIb/IIIa)
T1 construct: purchased Enzyme Research Laboratories (South Bend, Ind.)
T1 sequence (P08514 32-887 limits assumed): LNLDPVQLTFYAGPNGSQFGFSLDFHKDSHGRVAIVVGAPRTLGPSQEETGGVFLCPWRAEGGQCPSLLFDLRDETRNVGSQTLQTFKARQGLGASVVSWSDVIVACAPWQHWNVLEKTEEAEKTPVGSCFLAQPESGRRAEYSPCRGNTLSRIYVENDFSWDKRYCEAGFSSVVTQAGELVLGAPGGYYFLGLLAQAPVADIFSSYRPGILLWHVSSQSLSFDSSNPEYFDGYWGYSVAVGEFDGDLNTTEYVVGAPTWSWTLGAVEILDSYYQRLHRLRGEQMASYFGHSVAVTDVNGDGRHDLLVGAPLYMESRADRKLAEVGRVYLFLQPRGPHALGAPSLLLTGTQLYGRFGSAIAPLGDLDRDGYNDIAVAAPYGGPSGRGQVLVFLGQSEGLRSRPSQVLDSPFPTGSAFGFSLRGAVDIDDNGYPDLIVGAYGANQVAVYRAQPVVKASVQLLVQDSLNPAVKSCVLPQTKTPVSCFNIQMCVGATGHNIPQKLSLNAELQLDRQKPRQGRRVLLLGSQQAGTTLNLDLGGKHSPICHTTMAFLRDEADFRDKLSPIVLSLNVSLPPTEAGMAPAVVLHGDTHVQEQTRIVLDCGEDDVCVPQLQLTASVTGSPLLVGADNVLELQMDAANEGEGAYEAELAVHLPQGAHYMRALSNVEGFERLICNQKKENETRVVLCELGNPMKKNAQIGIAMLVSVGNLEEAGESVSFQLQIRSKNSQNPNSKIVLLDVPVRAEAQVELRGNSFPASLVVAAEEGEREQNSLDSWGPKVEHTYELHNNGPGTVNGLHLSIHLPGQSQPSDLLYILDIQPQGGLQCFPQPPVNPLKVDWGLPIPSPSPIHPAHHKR
T1 sequence (P05106 27-788): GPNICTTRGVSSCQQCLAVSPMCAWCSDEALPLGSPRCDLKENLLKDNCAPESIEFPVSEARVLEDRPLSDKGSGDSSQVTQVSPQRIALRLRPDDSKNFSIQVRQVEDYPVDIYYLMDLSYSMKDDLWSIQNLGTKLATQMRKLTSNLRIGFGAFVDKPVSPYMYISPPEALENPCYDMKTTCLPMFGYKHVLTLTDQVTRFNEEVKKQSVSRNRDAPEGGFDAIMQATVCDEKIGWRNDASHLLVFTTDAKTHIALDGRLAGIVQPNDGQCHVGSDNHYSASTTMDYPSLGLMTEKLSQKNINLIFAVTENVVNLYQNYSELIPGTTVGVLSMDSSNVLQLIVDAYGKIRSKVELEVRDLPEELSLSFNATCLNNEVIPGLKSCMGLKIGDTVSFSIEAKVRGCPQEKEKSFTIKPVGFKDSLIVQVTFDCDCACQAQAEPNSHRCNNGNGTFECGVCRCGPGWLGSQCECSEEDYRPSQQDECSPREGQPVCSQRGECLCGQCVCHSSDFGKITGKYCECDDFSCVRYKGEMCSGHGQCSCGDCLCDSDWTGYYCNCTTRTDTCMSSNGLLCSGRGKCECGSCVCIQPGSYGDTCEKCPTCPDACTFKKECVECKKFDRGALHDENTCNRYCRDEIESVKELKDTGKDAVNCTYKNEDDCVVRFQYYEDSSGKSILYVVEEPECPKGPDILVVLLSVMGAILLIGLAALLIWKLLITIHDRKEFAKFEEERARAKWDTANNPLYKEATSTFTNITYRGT
Description: A 96-well Maxisorp plate (Nunc) was coated with GPIIb/IIIa (10 μg mL^−1, 100 μL) and incubated at 4° C. overnight. The plate was washed (5×) with buffer (50 mM Tris-HCl, 100 mM NaCl, 2 mM CaCl2, 0.05% Tween20, pH 7.4). Blocking solution (3.5% BSA, 100 μL) was added to the well and incubated at 37° C. for 3 hours. The plate was washed (5×) with buffer. Peptides (50 μL) and fibrinogen (40nM, 50 μL) were added to the plate and incubated at room temperature for 3 hours. The plate was washed (5×) and antibody (goat polyclonal to fibrinogen (HRP), 1:20,000 dilution, 100 μL) was added to the plate and incubated for 1 hour at room temperature. The plate was washed (5×) and substrate (2,2′-azino-bis(3-ethylbenzthiazoline-6-sulphonic acid, ABTS, 100 μL) was added to the wells and allowed to react for 5 minutes. The absorbance was measured (Perkin Elmer Wallac Victor2 1420 Multilabel Counter) at 405 nm. The data was analyzed using Graphpad Prism 5.
Glycoprotein Iib-IIIa (GPIIb/IIIa) is present on platelets and its binding to fibrinogen has been associated with platelet aggregation.
A competitive binding ELISA was used to determine the potency of the multivalent RGD peptides. GPIIb/IIIa is known to contain the integrins αIIβ and β3, which bind RGD peptide sequences. Fibrinogen is also known to bind to these integrins. The ELISA was performed to quantitate the inhibition of bound fibrinogen in the presence of RGD peptide. The ELISA was performed as described previously.4 Briefly, GPIIb/IIIa was incubated in a 96 well Maxisorp plate (Nunc) (10 μg ml^−1) overnight at 4° C. The plate was blocked for non-specific interactions using BSA (3.5 wt%, 3 hr). Varying peptides concentrations and fibrinogen (40 nM) was incubated in the plate for 3 hr at room temperature. Fibrinogen antibody (HRP) (1:20,000 dilution) as added (1 hr). The substrate (2,2′-Azinobis[3-ethylbenzothiazoline-6-sulfonic acid]-diammonium salt-ABTS) was added and the absorbance measured at 405 nm. Peptide concentrations are reported as total molecule molarity as opposed to normalized [RGD].

MIN6 cells = MIN6 cells encapsulated in PEG diacrylate gels with RGD, metabolic activity by Alamar Blue assay; type: cell-based; conditions: FIG. 19; for MIN6 viability / cell survival: 100 μM RGD in PEG gel, 10-day study
Source text: To test whether cyclic RGD, when encapsulated in PEG gels may enhance the survival of MIN6 cells, cyclic RGD was incorporated into PEG gels and applied to cell cultures of MIN6 cells. A cyclic RGD dimer was synthesized on-resin using Traut's reagent. The dimer contained a free thiol, which could be utilized for conjugation into PEG networks via thiol-acrylate photopolymerizations.
To examine whether the cyclic RGD derivatives could enhance cell viability, MIN6 cells were encapsulated at a relatively low density (5×10^6 cells mL^−1, data not published) in PEG diacrylate gels with varying amounts of RGD. Cell metabolic activity was measured using an Alamar Blue assay. […] Total molar RGD concentration was held constant during the study.

Row | Compound | IC50 (GPIIb/IIIa) [µM] | potency relative to linear RGD (compound #1) (GPIIb/IIIa; competitive binding ELISA) | MIN6 viability / cell survival (MIN6 cells) | MIN6 metabolic activity relative to linear counterpart at the same concentration (MIN6 cells; 400 μM RGD in PEG gel, 5×10^6 cells mL^−1) | IC50 (GPIIb/IIIa; Table 2, mean ± SEM, triplicate, repeated twice, peptide concentration as total molecule molarity, not normalized [RGD], read-out: IC50(μM), inhibition of fibrinogen binding to GPIIb/IIIa) [µM]
1 | CC(=O)N[C@H]1CSC2CC3CC(C(=O)NCCCC[C@@H](C(N)=O)NC(=O)[C@@H](Cc4ccccc4)NC(=O)[C@H](CO)NC(=O)[C@H](CC(=O)O)NC(=O)CNC(=O)[C@H](CCCNC(=N)N)NC1=O)C2C3 (stereo partly shown) [Ac-c[CRGDSfK(Norbornene)]-NH2] (Ac-CRGDS[dF]K-NH2; linker 1-7 via X2) | 0.36 ± 0.09 |  |  |  | 
2 | N=C(N)NCCC[C@@H]1NC(=O)[C@@H](NC(=O)CNC(=O)CNC(=O)[C@@H](N)CS)CSCCCOC(=O)NCCCC[C@@H](C(N)=O)NC(=O)[C@@H](Cc2ccccc2)NC(=O)[C@H](CO)NC(=O)[C@H](CC(=O)O)NC(=O)CNC1=O [Compound #2, H-CGGc[CRGDSfK(Alloc)]-NH2] (H-CGGCRGDS[dF]K-NH2; linker 4-10 via X1) |  | enhanced potency | increased viability | significantly enhanced metabolic activity | 
3 | N=C(N)NCCC[C@@H]1NC(=O)[C@@H](NC(=O)CNC(=O)CNC(=O)[C@@H](N)CSCC(CCC(=O)NCCCC[C@H](NC(=O)CN)C(=O)NCC(=O)NCCCCCC(=O)NCC(=O)N[C@@H](CCCCNC(=O)CCC(CSC[C@H](N)C(=O)NCC(=O)NCC(=O)N[C@H]2CSCCCOC(=O)NCCCC[C@@H](C(N)=O)NC(=O)[C@@H](Cc3ccccc3)NC(=O)[C@H](CO)NC(=O)[C@H](CC(=O)O)NC(=O)CNC(=O)[C@H](CCCNC(=N)N)NC2=O)SC[C@H](N)C(=O)NCC(=O)NCC(=O)N[C@H]2CSCCCOC(=O)NCCCC[C@@H](C(N)=O)NC(=O)[C@@H](Cc3ccccc3)NC(=O)[C@H](CO)NC(=O)[C@H](CC(=O)O)NC(=O)CNC(=O)[C@H](CCCNC(=N)N)NC2=O)C(=O)NCC(N)=O)SC[C@H](N)C(=O)NCC(=O)NCC(=O)N[C@H]2CSCCCOC(=O)NCCCC[C@@H](C(N)=O)NC(=O)[C@@H](Cc3ccccc3)NC(=O)[C@H](CO)NC(=O)[C@H](CC(=O)O)NC(=O)CNC(=O)[C@H](CCCNC(=N)N)NC2=O)CSCCCOC(=O)NCCCC[C@@H](C(N)=O)NC(=O)[C@@H](Cc2ccccc2)NC(=O)[C@H](CO)NC(=O)[C@H](CC(=O)O)NC(=O)CNC1=O (stereo partly shown) [Compound #7] | 0.012 ± 0.003 |  |  |  | 
4 | H-CGGRGDS-NH2 [Compound #1, H-CGGRGDS-NH2] |  |  | not able to support cell survival |  | 15.4 ± 4.2
